# Measurements: ChEMBL document CHEMBL1201862, “PubChem BioAssay data set” (2004)
# Where “and” joins values, the source holds several entries; their conditions need not be identical. Equal values may be shown once. Calls of active or inactive are those of the source.
# What was measured:
# [1] = biological target: T1, RNA-binding protein pos-1 (Caenorhabditis elegans, UniProt G5EF15); assay: disruptors of C. elegans POS-1 RNA interaction – biochemical, fluorescence polarization, dose response (AID 1964);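 further: purified POS-1 fused to maltose binding protein made in E. coli; potency of compounds blocking POS-1 binding to fluorescent RNA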
# T1 sequence (G5EF15 whole entry): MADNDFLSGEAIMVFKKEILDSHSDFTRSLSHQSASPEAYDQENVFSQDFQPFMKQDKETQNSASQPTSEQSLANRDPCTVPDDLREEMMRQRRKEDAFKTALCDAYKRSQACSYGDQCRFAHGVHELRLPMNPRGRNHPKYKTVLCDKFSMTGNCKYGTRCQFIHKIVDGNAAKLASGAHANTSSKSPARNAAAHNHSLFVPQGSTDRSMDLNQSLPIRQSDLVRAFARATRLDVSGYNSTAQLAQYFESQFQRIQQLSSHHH
# [2] = biological target: T2, Zinc finger protein mex-5 (Caenorhabditis elegans, UniProt Q9XUB2); assay: potency of MEX-5 RNA-binding blockers – biochemical, C. elegans, fluorescence polarization, dose response (AID 1960)
# T2 sequence (Q9XUB2 whole entry): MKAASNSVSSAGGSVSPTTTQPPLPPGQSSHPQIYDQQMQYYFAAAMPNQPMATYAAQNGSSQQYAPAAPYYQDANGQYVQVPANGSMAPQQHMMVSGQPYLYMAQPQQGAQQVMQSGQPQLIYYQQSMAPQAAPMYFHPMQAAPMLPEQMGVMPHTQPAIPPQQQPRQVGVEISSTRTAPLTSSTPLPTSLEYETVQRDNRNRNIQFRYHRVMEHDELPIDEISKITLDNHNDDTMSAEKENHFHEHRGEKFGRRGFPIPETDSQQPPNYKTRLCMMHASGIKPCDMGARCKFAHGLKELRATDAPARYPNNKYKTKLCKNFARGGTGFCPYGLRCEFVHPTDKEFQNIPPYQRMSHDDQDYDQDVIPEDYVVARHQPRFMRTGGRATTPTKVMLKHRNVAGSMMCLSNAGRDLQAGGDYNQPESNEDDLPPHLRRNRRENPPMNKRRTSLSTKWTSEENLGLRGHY
# [3] = biological target: Cytochrome P450 2D6 (Homo sapiens, UniProt P10635);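 further: CYP2D6 member of a cytochrome P450 panel assay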
# Sequence of Cytochrome P450 2D6 (P10635 whole entry): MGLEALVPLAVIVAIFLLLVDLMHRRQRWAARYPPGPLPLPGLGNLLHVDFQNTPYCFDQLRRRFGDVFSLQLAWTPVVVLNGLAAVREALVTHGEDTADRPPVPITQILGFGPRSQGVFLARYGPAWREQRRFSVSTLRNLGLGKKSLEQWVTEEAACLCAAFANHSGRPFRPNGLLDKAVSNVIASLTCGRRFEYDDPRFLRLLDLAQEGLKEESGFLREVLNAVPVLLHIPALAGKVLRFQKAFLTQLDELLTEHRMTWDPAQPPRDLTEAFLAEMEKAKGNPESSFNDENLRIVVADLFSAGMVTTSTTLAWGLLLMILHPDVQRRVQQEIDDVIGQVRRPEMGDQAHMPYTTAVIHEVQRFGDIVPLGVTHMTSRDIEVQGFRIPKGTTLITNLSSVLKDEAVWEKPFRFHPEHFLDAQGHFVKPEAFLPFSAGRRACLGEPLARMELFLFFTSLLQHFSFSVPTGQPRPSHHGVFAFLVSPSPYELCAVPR
# [4] = biological target: T3, Cytochrome P450 1A2 (Homo sapiens, UniProt P05177);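 further: PubChem cytochrome P450 panel assay, CYP1A2 panel member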
# T3 sequence (P05177 whole entry): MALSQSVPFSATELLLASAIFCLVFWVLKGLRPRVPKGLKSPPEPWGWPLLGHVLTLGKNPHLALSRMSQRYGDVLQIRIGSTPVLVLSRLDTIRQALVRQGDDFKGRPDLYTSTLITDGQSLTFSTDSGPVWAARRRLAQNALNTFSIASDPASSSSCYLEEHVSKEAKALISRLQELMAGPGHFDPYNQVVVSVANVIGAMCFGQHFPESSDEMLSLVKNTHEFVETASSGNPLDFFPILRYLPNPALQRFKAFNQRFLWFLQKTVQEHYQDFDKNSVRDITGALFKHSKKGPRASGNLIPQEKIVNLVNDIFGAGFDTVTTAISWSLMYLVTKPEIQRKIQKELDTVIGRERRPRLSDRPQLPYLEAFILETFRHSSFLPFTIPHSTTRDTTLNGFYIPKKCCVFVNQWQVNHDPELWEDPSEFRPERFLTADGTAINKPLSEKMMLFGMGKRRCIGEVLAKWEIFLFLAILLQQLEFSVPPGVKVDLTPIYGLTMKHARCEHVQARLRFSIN
# [5] = cells; assay type: functional
# [6] = biological target: T4, Protein RecA (Mycobacterium tuberculosis, UniProt P9WHJ3); assay: Fluorescence Cell-Free Homogeneous Dose Retest to Identify Inhibitors of RecA-Intein Splicing Activity. [Related pubchem assays (depositor defined):AID2097, AID2223, AID489010, AID492950]; assay type: functional
# T4 sequence (P9WHJ3 whole entry): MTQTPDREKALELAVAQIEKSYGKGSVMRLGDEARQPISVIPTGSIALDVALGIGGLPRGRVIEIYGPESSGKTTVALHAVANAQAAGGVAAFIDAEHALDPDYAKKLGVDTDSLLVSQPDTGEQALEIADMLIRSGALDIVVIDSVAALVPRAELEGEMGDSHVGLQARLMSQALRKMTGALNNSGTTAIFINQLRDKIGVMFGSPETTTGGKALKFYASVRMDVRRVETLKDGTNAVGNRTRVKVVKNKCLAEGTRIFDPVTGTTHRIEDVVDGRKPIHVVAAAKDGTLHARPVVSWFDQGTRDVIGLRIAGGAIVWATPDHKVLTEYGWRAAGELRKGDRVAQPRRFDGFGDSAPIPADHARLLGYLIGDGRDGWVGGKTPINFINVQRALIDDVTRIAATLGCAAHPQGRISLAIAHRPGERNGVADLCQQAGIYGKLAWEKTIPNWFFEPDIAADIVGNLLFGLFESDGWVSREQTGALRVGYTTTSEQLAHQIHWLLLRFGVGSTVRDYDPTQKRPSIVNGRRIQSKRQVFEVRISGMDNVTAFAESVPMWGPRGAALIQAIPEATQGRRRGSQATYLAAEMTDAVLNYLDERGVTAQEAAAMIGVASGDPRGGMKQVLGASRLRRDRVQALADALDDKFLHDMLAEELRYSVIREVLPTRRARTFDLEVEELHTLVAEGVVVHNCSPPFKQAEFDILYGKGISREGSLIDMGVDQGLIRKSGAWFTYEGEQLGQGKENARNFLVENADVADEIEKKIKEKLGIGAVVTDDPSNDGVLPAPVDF
# [7] = biological target: T5, Replicative DNA helicase DnaB (Mycobacterium tuberculosis, UniProt P9WMR3); assay: DnaB intein splicing inhibitors, dose response, biochemical, cell-free fluorescence (AID 449749); assay type: functional
# T5 sequence (P9WMR3 whole entry): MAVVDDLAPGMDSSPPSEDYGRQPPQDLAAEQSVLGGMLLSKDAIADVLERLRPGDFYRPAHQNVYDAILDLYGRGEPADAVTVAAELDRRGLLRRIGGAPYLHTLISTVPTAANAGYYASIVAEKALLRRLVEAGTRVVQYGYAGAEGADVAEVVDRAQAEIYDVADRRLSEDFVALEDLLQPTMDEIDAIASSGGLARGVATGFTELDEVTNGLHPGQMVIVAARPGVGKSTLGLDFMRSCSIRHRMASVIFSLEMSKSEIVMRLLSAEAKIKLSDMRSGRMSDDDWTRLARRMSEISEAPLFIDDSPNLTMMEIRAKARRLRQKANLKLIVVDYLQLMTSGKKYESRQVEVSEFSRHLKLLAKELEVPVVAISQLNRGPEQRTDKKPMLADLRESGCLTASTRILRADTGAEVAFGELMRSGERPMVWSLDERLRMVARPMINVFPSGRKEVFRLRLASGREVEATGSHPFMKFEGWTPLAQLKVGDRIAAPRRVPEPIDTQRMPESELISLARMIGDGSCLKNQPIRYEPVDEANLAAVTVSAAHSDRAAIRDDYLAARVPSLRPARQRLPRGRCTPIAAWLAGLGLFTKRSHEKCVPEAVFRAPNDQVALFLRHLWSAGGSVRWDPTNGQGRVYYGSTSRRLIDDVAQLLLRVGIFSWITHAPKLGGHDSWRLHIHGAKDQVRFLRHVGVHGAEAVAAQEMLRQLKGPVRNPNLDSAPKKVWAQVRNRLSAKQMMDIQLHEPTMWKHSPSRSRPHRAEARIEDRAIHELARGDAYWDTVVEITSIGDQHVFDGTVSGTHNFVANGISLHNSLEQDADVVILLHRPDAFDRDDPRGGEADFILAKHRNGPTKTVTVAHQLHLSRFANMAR
# [8] = biological target: Cytochrome P450 2C9 (Homo sapiens, UniProt P11712)
# Sequence of Cytochrome P450 2C9 (P11712 whole entry): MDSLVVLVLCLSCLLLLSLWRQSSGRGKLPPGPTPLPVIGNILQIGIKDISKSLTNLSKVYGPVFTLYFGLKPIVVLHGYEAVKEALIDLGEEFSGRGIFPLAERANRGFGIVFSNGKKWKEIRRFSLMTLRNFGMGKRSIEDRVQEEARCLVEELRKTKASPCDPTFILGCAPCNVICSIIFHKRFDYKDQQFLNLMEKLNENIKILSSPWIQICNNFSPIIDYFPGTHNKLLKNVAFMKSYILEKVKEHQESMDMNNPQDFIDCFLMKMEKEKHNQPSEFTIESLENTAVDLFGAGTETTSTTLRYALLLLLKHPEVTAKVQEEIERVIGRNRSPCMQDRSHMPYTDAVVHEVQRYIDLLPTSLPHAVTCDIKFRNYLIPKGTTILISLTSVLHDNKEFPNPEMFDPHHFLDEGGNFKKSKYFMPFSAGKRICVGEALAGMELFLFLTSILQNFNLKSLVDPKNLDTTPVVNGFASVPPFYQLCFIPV
# [9] = test system: Streptococcus sp. 'group A'; assay: Streptococcus pyogenes SK(-)GAS viability under kanamycin – luminescence, BacTiterGlo, confirmation, counter-screen for streptokinase expression inhibitor project, dose response (AID 1900); assay type: functional, organism-based
# [10] = test system: Streptococcus; assay: GAS UMAA2166 growth inhibition – luminescence, BacTiterGlo, counter-screen for streptokinase expression inhibitor project, dose response (AID 1915); assay type: functional, organism-based;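 further: potency for reduction of bacterial viability or growth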
# [11] = biological target: T6, Streptokinase A (Streptococcus pyogenes serotype M1, UniProt P10520); assay: viability-normalized secreted streptokinase activity reduction – plasminogen activation absorbance, OD405, dose response (AID 1914); assay type: functional, Streptococcus pyogenes M1 GAS;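 further: secreted streptokinase activity via plasminogen activation per viability signal from cell pellet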
# T6 sequence (P10520 whole entry): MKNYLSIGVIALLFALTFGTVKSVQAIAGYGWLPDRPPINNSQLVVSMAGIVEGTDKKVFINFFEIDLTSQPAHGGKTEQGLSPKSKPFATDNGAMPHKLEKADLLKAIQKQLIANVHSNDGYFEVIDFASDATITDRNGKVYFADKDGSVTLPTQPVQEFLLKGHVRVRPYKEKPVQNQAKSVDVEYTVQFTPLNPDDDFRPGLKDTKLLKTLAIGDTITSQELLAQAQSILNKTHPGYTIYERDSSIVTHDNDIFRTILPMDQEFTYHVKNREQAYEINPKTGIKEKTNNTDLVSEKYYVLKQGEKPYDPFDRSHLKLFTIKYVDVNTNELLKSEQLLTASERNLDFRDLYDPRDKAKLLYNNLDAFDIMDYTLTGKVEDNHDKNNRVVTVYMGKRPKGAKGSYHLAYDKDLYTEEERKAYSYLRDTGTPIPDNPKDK
smiles,measurement,setting,value
O=C(O)c1cc(Cl)c2c(c1)[C@@H]1C=CC[C@@H]1[C@H](c1ccc(S(=O)(=O)N3CCOCC3)cc1)N2,EC50,[1],> 300 µM (not active)
same,EC50,[2],29.7 µM (active)
CC[C@H](C)C(=O)O[C@H]1CCC=C2C=C[C@H](C)[C@H](CC[C@@H]3C[C@H](O)CC(=O)O3)[C@H]21,AC50,[3],31.6 µM (inconclusive)
same,AC50,[4],31.6 µM (inconclusive)
N#CC(C(=O)NCc1ccco1)c1nc2ccccc2nc1N1CCOCC1 (stereo not drawn),IC50,[5],49 µM (active)
CCCc1nc(SCC(=O)N2CCc3ccccc3C2)c2ccccc2n1,EC50,[6],14.6 µM (active)
same,AC50,[7],14.1 µM (active)
O=C(Cc1ccccc1)NNC(=O)c1cnccn1,EC50,[1],> 300 µM (not active)
same,EC50,[2],41.4 µM (active)
COc1ccccc1-c1cc(Nc2ccc(F)cc2)ncn1,AC50,[3],39.8 µM (inconclusive)
C/C(=N/Nc1ccc2ccccc2n1)c1ccccc1O,AC50,[8],2.51 µM (inconclusive)
CN(C)/C=C/C(=O)c1ccc2noc(-c3ccc(F)cc3)c2c1,EC50,[6],> 380 µM (inactive)
same,AC50,[7],> 380 µM (inactive)
Cc1cc(NCc2ccccn2)ccc1Br,AC50,[8],7.08 µM (inconclusive)
N#Cc1ccccc1-c1ccc2ncnc(NCCN3CCOCC3)c2c1,AC50,[3],39.8 µM (inconclusive)
CC1(C)N=C(SCC(=O)Nc2ccc(Cl)cc2Cl)C(c2ccccc2)=N1,EC50,[6],17.7 µM (active)
same,AC50,[7],10.7 µM (active)
Cc1ccccc1CSCCN=C(S)Nc1ccccc1,EC50,[1],> 300 µM (not active)
same,EC50,[2],> 300 µM (not active)
CCN1C=CC2=C(C#N)C(N)C(C#N)(C#N)C(c3ccccc3C(F)(F)F)C2C1 (stereo not drawn),EC50,[1],260 µM (inconclusive)
same,EC50,[2],> 300 µM (not active)
CCCCCC(=O)Nc1cccc(-c2nc3ncccc3o2)c1,AC50,[3],22.4 µM (inconclusive)
Cc1ccccc1OCCN=C(S)Nc1ccccc1,AC50,[8],10 µM (inconclusive)
same,AC50,[4],3.16 µM (inconclusive)
CC1(CCl)[N+]([O-])=C2CCCCC2=[N+]1[O-],EC50,[1],> 300 µM (not active)
same,EC50,[2],121 µM (active)
Cc1ccc2oc(=O)c3cc(C(=O)NCCCN4CCCCCC4)sc3c2c1,IC50,[5],> 50 µM (active)
Cc1c(NC(=O)C(Sc2ccccc2)c2ccccc2)cccc1[N+](=O)[O-] (stereo not drawn),AC50,[3],3.16 µM (inconclusive)
COc1cccc(C(=O)OCC(=O)Nc2nnc(-c3ccccc3)o2)c1,IC50,[5],14.8 µM (active)
same,EC50,[9],7.55 µM (active)
same,EC50,[10],60.9 µM (active)
same,EC50,[11],> 150 µM (not active)
O=C1c2ccccc2C(=O)N1CCCCN(C(=O)c1ccc([N+](=O)[O-])cc1)c1ccc(Cl)cc1,AC50,[3],15.8 µM (inconclusive)
COC(=O)COc1ccc2c(=O)c(-c3ccccc3)coc2c1,IC50,[5],< 0.1 µM (active)
c1ccc(CN2CCC3(CCNCC3)CC2)cc1,AC50,[8],25.1 µM (inconclusive)
CSCC(C)N1CCC(N2CCC(C(=O)NCc3ccccn3)CC2)CC1 (stereo not drawn),EC50,[1],161 µM (active)
same,EC50,[2],> 300 µM (not active)
CCCC(CCC)C(=O)NNc1cc(O)c2c(=O)n(C)c(=O)n(C)c2n1,AC50,[8],0.178 µM (inconclusive)
Cc1cccc(NC(=O)COC(=O)CCc2c[nH]c3ccccc23)c1,IC50,[5],0.71 µM (active)
CCc1c2c(nc3cccc(SC)c13)COC2,AC50,[3],39.8 µM (inconclusive)
O=S(=O)(Nc1cccnc1Cl)c1ccc2c(c1)OCCO2,AC50,[8],15.8 µM (inconclusive)
CCn1nc(C)c(C2C(C#N)=C(N)Oc3[nH]nc(C)c32)c1C (stereo not drawn),EC50,[6],12.5 µM (active)
same,AC50,[7],88.9 µM (active)
O=C(C/C=N/OCc1ccc(Cl)cc1Cl)c1ccc(Cl)cc1,AC50,[3],17.8 µM (inconclusive)
same,AC50,[8],17.8 µM (inconclusive)
CC1C(=O)NN=C1C(=O)N/N=C/c1ccco1 (stereo not drawn),EC50,[1],> 300 µM (not active)
same,EC50,[2],> 300 µM (not active)
"COc1ccc2c(c1OC)C(=O)O[C@H]2[C@H]1c2cc3c(cc2CCN1C)OCO3 [1R,9S-HYDRASTINE]",AC50,[8],1.58 nM (inconclusive) and 15.8 µM (inconclusive)
